According to patent US9173906B2, “Methods and compositions for tissue regeneration” (SMITH & NEPHEW, INC., priority 2002, dated 2015):

What was measured:
Test in all cases: Mitomycin C growth arrest of fibroblasts (weekly cell counting, colony inspection)
[1] = system: rat fibroblast cell line (CRL 1213); format: cell-based; details: MMC treatment for 5 h
Procedure: (§1) The rat fibroblast cell line (CRL 1213), the FGF1-transfected rat fibroblast cell line (1175/CRL 1213), the human telomerase immortalized fibroblast line (MDX12), and the primary human fibroblasts (EDX1) were each growth arrested using the following method. Fibroblasts were grown in DMEM+10% FCS, 25 mM Hepes, 1 mM pyruvate, 2 mM L-Gln, 100 U/ml penicillin, 100 μg/ml streptomycin in T75 flasks. […] The cells were then rinsed with PBS and detached with 0.05% trypsin/0.02% EDTA. The remaining cells were plated at densities of 100 to 5000 cells/cm^2 in T25-flasks respectively (10 flasks for each density). These cells were incubated at 37° C. with 2 media changes per week.
(§2) Efficiency of cell growth arrest was measured by weekly counting of cells (using a hemacytometer) cultured in the flasks plated at a density of 5000 cells/cm^2 and by inspection of appearing colonies in the flasks plated at a density of 100 cells/cm^2. Changes in cell morphology were also examined.

[2] = system: FGF1-transfected rat fibroblast cell line (1175/CRL 1213); format: cell-based
Procedure: as §1, §2

[3] = system: primary human fibroblasts (EDX1); details: MMC treatment for 5 h
Procedure: as §1, §2

[4] = system: human telomerase immortalized fibroblast line (MDX12); details: MMC treatment for 5 h
Procedure: as §1, §2

For `CO[C@@]12[C@H](COC(N)=O)C3=C(C(=O)C(C)=C(N)C3=O)N1C[C@@H]1N[C@@H]12` [mitomycin C], the “concentration optimal to growth arrest” value [1] was 2 µg/mL, the “efficacy of concentrations below 1 μg/ml” value [2] was “not efficacious” and the “concentration at which cells were growth arrested” value ([2]; MMC treatment for 5 h) was 1 µg/mL. For the same compound, the “concentration sufficient to growth arrest” value [3] was 8 µg/mL and the “concentration sufficient to growth arrest” value [4] was 8 µg/mL.
